In the NIST ThermoML archive (doi:10.1016/j.jct.2014.01.030):

Legend:
[1] = refractive index (Na D-line) (dimensionless); details: 101.33 kPa, Liquid, Standard Abbe refractometry
[2] = Liquid; for speed of sound: Sing-around technique in a fixed-path interferometer; for mass density: Vibrating tube method; for viscosity: Capillary tube (Ostwald / Ubbelohde) method
[3] = xn = mol fraction of the nth substance listed; details: 101 kPa, Liquid, x1 = 1; for speed of sound: Sing-around technique in a fixed-path interferometer; for mass density: Vibrating tube method
[4] = molar heat capacity at constant pressure; details: 101.33 kPa, Liquid, Small sample (50 mg) DSC

CCC(C)O (configuration not stated) [butan-2-ol]
Details | refractive index
[1], 298.15 K | 1.39487

[2], 101 kPa
Details | mass density [kg/m3] | speed of sound [m/s]
288.15 K | 810.96 | 1249
298.15 K | 802.82 | 1213
308.15 K | 794.34 | 1177

CCCCCO [pentan-1-ol] + CCn1cc[n+](C)c1.COS(=O)(=O)[O-]
[3]
Details | mass density [kg/m3] | speed of sound [m/s]
288.15 K | 818.25 | 1310
298.15 K | 810.99 | 1276
308.15 K | 803.61 | 1243

CCO [ethanol] + CCn1cc[n+](C)c1.COS(=O)(=O)[O-]
[3]
Details | mass density [kg/m3] | speed of sound [m/s]
288.15 K | 794.04 | 1179
298.15 K | 785.52 | 1145
308.15 K | 776.87 | 1111

CC(C)O [propan-2-ol]
Details | refractive index
[1], 298.15 K | 1.37523

[2], 101 kPa
Details | mass density [kg/m3] | speed of sound [m/s]
288.15 K | 790.01 | 1177
298.15 K | 781.67 | 1141
308.15 K | 773.03 | 1106

CO [methanol]
Details | refractive index
[1], 298.15 K | 1.32649

[2], 101 kPa
Details | mass density [kg/m3] | speed of sound [m/s]
288.15 K | 796.46 | 1137
298.15 K | 787.1 | 1104
308.15 K | 777.64 | 1071

CCO [ethanol]
Details | refractive index
[1], 298.15 K | 1.35907

[2], 101 kPa
Details | mass density [kg/m3] | speed of sound [m/s]
288.15 K | 794.04 | 1179
298.15 K | 785.52 | 1145
308.15 K | 776.87 | 1111

CC(C)O [propan-2-ol] + CCn1cc[n+](C)c1.COS(=O)(=O)[O-]
[3]
Details | mass density [kg/m3] | speed of sound [m/s]
288.15 K | 790.01 | 1177
298.15 K | 781.67 | 1141
308.15 K | 773.03 | 1106

CO [methanol] + CCn1cc[n+](C)c1.COS(=O)(=O)[O-]
[3]
Details | mass density [kg/m3] | speed of sound [m/s]
288.15 K | 796.46 | 1137
298.15 K | 787.1 | 1104
308.15 K | 777.64 | 1071

CCCCCO [pentan-1-ol]
Details | refractive index
[1], 298.15 K | 1.40774

[2], 101 kPa
Details | mass density [kg/m3] | speed of sound [m/s]
288.15 K | 818.25 | 1310
298.15 K | 810.99 | 1276
308.15 K | 803.61 | 1243

CCn1cc[n+](C)c1.COS(=O)(=O)[O-] [1-ethyl-3-methylimidazolium methylsulfate]
Details | molar heat capacity at constant pressure, [4] [J/K/mol] | refractive index, [1]
288.15 K | 331.48 | –
293.15 K | – | 1.48252
298.15 K | 340.77 | 1.48125
303.15 K | – | 1.47998
308.15 K | 346.99 | 1.47868
313.15 K | – | 1.4774
318.15 K | – | 1.47612
323.15 K | – | 1.4748
328.15 K | – | 1.4735
333.15 K | – | 1.47218
338.15 K | – | 1.47086
343.15 K | – | 1.46954

[2], 101.33 kPa
Details | mass density [kg/m3] | speed of sound [m/s] | viscosity [mPa·s]
288.15 K | 1287.57 | 1781 | –
293.15 K | 1284.26 | 1768 | 85.22
298.15 K | 1280.81 | 1756 | 67.06
303.15 K | 1277.28 | 1744 | 54.39
308.15 K | 1273.97 | 1732 | 44.68
313.15 K | 1270.57 | 1720 | 37.1
318.15 K | 1267.18 | 1709 | 31.27
323.15 K | 1263.81 | 1697 | 26.81
328.15 K | 1260.45 | 1686 | 22.74
333.15 K | 1257.09 | 1675 | 19.71
338.15 K | 1253.75 | 1663 | 17.25
343.15 K | 1250.42 | 1652 | 15.16

CCCO [propan-1-ol] + CCn1cc[n+](C)c1.COS(=O)(=O)[O-]
[3]
Details | mass density [kg/m3] | speed of sound [m/s]
288.15 K | 808.48 | 1243
298.15 K | 800.5 | 1208
308.15 K | 792.38 | 1174

CCC(C)O (configuration not stated) [butan-2-ol] + CCn1cc[n+](C)c1.COS(=O)(=O)[O-]
[3]
Details | mass density [kg/m3] | speed of sound [m/s]
288.15 K | 810.96 | 1249
298.15 K | 802.82 | 1213
308.15 K | 794.34 | 1177

CCCO [propan-1-ol]
Details | refractive index
[1], 298.15 K | 1.38286

[2], 101 kPa
Details | mass density [kg/m3] | speed of sound [m/s]
288.15 K | 808.48 | 1243
298.15 K | 800.5 | 1208
308.15 K | 792.38 | 1174
